Results on one molecule are retold here after article PMC2778857 (Biochemistry, 2009).

Changes are numbered by the printed parent chain.

Experiment in all cases: titration with apoprotein, FMN absorbance or fluorescence
The target in test [1] is T1, FMN-binding domain (FMN domain) of flavocytochrome P450BM-3 (BM3) (Priestia megaterium, UniProt P14779, N538A).
T1 sequence (P14779 472-650 N538A): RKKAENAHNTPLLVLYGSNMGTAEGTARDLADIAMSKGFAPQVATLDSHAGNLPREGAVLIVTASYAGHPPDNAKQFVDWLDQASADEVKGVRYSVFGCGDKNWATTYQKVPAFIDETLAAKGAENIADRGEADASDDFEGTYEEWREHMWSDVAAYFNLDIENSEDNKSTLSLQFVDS

The target in test [2] is T2, FMN-binding domain (FMN domain) of flavocytochrome P450BM-3 (BM3) (Priestia megaterium, UniProt P14779, P542A).
T2 sequence (P14779 472-650 P542A): T1 sequence (P14779 472-650 N538A) with A67N, P71A

Test [3] addresses T3, FMN-binding domain (FMN domain) of flavocytochrome P450BM-3 (BM3) (Priestia megaterium, UniProt P14779, Y537H).
T3 sequence (P14779 472-650 Y537H): T1 sequence (P14779 472-650 N538A) with Y66H, A67N

Test [4] concerns the target T4, FMN-binding domain (FMN domain) of flavocytochrome P450BM-3 (BM3) (Priestia megaterium, UniProt P14779, Y537R).
T4 sequence (P14779 472-650 Y537R): T1 sequence (P14779 472-650 N538A) with Y66R, A67N

Test [5] has as its target T5, FMN-binding domain (FMN domain) of flavocytochrome P450BM-3 (BM3) (Priestia megaterium, UniProt P14779, N538G).
T5 sequence (P14779 472-650 N538G): T1 sequence (P14779 472-650 N538A) with A67G

Test [6] concerns the target T6, FMN-binding domain (FMN domain) of flavocytochrome P450BM-3 (BM3) (Priestia megaterium, UniProt P14779).
T6 sequence (P14779 472-650): T1 sequence (P14779 472-650 N538A) with A67N

In test [7] the target is T7, FMN-binding domain (FMN domain) of flavocytochrome P450BM-3 (BM3) (Priestia megaterium, UniProt P14779, P541A).
T7 sequence (P14779 472-650 P541A): T1 sequence (P14779 472-650 N538A) with A67N, P70A

Test [8] has as its target T8, FMN-binding domain (FMN domain) of flavocytochrome P450BM-3 (BM3) (Priestia megaterium, UniProt P14779, G539A/N538A).
T8 sequence (P14779 472-650 N538A/G539A): T1 sequence (P14779 472-650 N538A) with G68A

Test [9] has as its target T9, FMN-binding domain (FMN domain) of flavocytochrome P450BM-3 (BM3) (Priestia megaterium, UniProt P14779, G539A/N538G).
T9 sequence (P14779 472-650 N538G/G539A): T1 sequence (P14779 472-650 N538A) with A67G, G68A

Consider `Cc1cc2nc3c(=O)[nH]c(=O)nc-3n(C[C@H](O)[C@H](O)[C@H](O)COP(=O)(O)O)c2cc1C` [FMN], for which the Kd in [1] was determined as 30 ± 5 nM; in [2] it was 140 ± 33 nM; in test [3] it was 350 ± 72 nM; in test [4], 2100 ± 600 nM; in test [5], 30 ± 5 nM; in [6] it was 41 ± 18 nM. Also, the figures for the Kd in test [7], in test [8] and in test [9] were 43 ± 7 nM, 1000 ± 200 nM and 400 ± 100 nM, respectively.
